The target in one test is T1, viral kinase pUL-97 (Human cytomegalovirus, UniProt P16788).
T1 construct: The pUL-97 gene was cloned into a baculovirus vector; GST (glutathione S-transferase) (N); made in house; host or cells: Sf9 insect cells, baculovirus
T1 sequence (P16788 whole entry): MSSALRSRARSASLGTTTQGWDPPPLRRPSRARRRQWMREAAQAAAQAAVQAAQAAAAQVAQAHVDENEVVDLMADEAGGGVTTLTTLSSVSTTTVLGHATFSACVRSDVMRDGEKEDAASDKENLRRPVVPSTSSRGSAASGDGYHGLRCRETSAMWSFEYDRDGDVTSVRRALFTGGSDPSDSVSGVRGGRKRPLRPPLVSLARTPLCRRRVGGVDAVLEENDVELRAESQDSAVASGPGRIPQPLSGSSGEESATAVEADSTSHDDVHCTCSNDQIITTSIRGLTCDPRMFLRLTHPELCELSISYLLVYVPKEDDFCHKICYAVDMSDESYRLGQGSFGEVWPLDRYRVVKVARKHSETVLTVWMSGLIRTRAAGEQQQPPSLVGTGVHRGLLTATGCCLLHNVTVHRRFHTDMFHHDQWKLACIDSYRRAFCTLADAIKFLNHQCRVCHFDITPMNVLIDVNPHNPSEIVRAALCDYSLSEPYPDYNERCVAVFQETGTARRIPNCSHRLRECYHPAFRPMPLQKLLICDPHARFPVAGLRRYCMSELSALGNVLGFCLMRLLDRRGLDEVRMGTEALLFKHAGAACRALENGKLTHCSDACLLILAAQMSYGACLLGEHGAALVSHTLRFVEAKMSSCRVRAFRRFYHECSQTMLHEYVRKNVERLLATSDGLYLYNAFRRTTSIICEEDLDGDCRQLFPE
The experiment in a line: UL97 kinase assay on Immobilon plate. To be noted: inhibition of UL 97 kinase activity; class by IC50 / % inhibition at 10 μM or 100 μM; read-out: Activity Class [A, B, C]. Format: biochemical. As for the experimental part:
UL97 Kinase-Assay on Immobilon Plate
The effect of pyrazine derivatives of this invention was tested on the activity of the viral kinase pUL-97. This kinase is derived from human cytomegalovirus (HCMV) (M. Marschall et al., Journal of General Virology, 2001, 82, 1439-1450). The pUL-97 gene was cloned into a baculovirus vector in order to produce GST (glutathione S-transferase) fusion protein. Insect cells (Sf9) were infected and GST-UL-97 purified via glutathione affinity columns according to standard procedures.
The pUL-97 kinase reaction was performed as described (M. Marschall et al., Journal of General Virology, 2001, 82, 1439-1450). Briefly, 10 μl Assay buffer (3 μM ATP, 60 μg/ml myelin basic protein (MBP) as substrate), 1.0 μCi γ-[^33P]ATP and 10 μl Basic buffer (20 mM Tris-HCl pH7.5, 0.5 mM MnCl2, 1 mM DTT (Dithiothreitol)) were given to the test tube before adding various concentrations of pyrazine derivatives. The reaction was started by adding 0.2 μl pUL-97 kinase, purified from infected Sf9-insect cells as described above. The total volume was adjusted with Basic buffer to a final volume of 30 μl. The reaction mix was incubated for 1 hr at 30° C. For negative control, 10 μl 0.1M EDTA (Ethylene Diamine tetraacetate) was added to reaction mix before addition of pUL-97 protein kinase. The reaction was stopped by addition of 10 μl 0.1 M EDTA.
Measuring Incorporation of Radioactivity:
The Immobilon plate (Millipore) was rinsed with 50 μl methanol/well. Following addition of 100 μl 0.1 M EDTA, 20 μl of each kinase reaction mix was added to one well of the Immobilon plate. Each well was washed 4× with 250 μl 0.75% phosphoric acid and 1× with 50 μl methanol. After addition of 50 μl scintillation cocktail (Roth, Germany) per well incorporation of radioactivity was measured using a Betareader (Wallac) and enzymatic activity calculated.
As to `OCc1ccc(-c2cncc(N3CCN(c4cccc(C(F)(F)F)c4)CC3)n2)cc1` [compound 254, {4-[4-(3-Trifluoromethyl-phenyl)-3,4,5,6-tetrahydro-2H-[1,2′]bipyrazinyl-6′-yl]-phenyl}-methanol], the IC50 fell in the range of 10 to 100 µM.
For `Cc1cccc(-c2cncc(N3CCN(c4cnccn4)CC3)n2)c1` [compound 329, 6-m-Tolyl-2′,3′,5′,6′-tetrahydro-[2,1′;4′,2″]terpyrazine], the IC50 is 1 to 10 µM.
Still for that read-out and setting: the result for `Cc1cccc(N2CCN(c3cncc(-c4cc5ccccc5s4)n3)CC2)c1C` [compound 295, 6′-Benzo[b]thiophen-2-yl-4-(2,3-dimethyl-phenyl)-3,4,5,6-tetrahydro-2H-[1,2′]bipyrazinyl] reads 10 to 100 µM; that for `Fc1ccc(-c2cncc(N3CCN(c4cccc(Cl)c4)CC3)n2)cc1Cl` [compound 238, 6′-(3-Chloro-4-fluoro-phenyl)-4-(3-chloro-phenyl)-3,4,5,6-tetrahydro-2H-[1,2′]bipyrazinyl], 10 to 100 µM.
Regarding `Cc1ccc(N2CCN(c3cncc(-c4ccc(F)c(Cl)c4)n3)CC2)cc1C` [compound 316, 6′-(3-Chloro-4-fluoro-phenyl)-4-(3,4-dimethyl-phenyl)-3,4,5,6-tetrahydro-2H-[1,2′]bipyrazinyl], the IC50 fell in the range of 10 to 100 µM.
As for `Fc1ccc(-c2cncc(N3CCN(c4ccc(Cl)c(Cl)c4)CC3)n2)cc1` [compound 370], the IC50 was in the range of 10 to 100 µM.
As to `CC(=O)c1cccc(-c2cncc(N3CCN(c4ccccn4)CC3)n2)c1` [compound 307, 1-[3-(4-Pyridin-2-yl-3,4,5,6-tetrahydro-2H-[1,2′]bipyrazinyl-6′-yl)-phenyl]-ethanone], the IC50 fell in the range of 1 to 10 µM.
As for `COc1ccc(N2CCN(c3cncc(-c4ccc(C)cc4)n3)CC2)cc1OC` [compound 224, 4-(3,4-Dimethoxy-phenyl)-6′-p-tolyl-3,4,5,6-tetrahydro-2H-[1,2′]bipyrazinyl], the IC50 fell in the range of 1 to 10 µM.
On the same count and under the same terms, the result for `Cc1ccc(N2CCN(c3cncc(-c4ccc(F)c(Cl)c4)n3)CC2)c(C)c1` [compound 281, 6′-(3-Chloro-4-fluoro-phenyl)-4-(2,4-dimethyl-phenyl)-3,4,5,6-tetrahydro-2H-[1,2′]bipyrazinyl] reads 10 to 100 µM.

Staying with this test, now noted: inhibition of UL 97 kinase activity; class by IC50 / % inhibition at 10 or 100 μM; read-out: Activity Class [A, B, C].
For `CC(=O)c1ccccc1-c1cncc(N2CCN(c3cccc(C(F)(F)F)c3)CC2)n1` [compound 153, 1-{2-[4-(3-Trifluoromethyl-phenyl)-3,4,5,6-tetrahydro-2H-[1,2′]bipyrazinyl-6′-yl]-phenyl}-ethanone], the IC50 fell in the range of 10 to 100 µM.
Same read-out and setting: for `Cc1ccccc1-c1cncc(N2CCN(c3ccccc3)CC2)n1` [compound 94, 4-Phenyl-6′-o-tolyl-3,4,5,6-tetrahydro-2H-[1,2′]bipyrazinyl] the value was 10 to 100 µM; for `FC(F)(F)c1cccc(-c2cncc(N3CCN(c4ccncc4)CC3)n2)c1` [compound 32, 4-Pyridin-4-yl-6′-(3-trifluoromethyl-phenyl)-3,4,5,6-tetrahydro-2H-[1,2′]bipyrazinyl], under 1 µM.
Same read-out and setting: for `CC(=O)c1cccc(-c2cncc(N3CCN(c4ccccc4)CC3)n2)c1` [compound 112, 1-[3-(4-Phenyl-3,4,5,6-tetrahydro-2H-[1,2′]bipyrazinyl-6′-yl)-phenyl]-ethanone] the value was 1 to 10 µM.
For the compound `CC(=O)c1cccc(-c2cncc(N3CCN(c4cccc(C(F)(F)F)c4)CC3)n2)c1` [compound 162, 1-{3-[4-(3-Trifluoromethyl-phenyl)-3,4,5,6-tetrahydro-2H-[1,2′]bipyrazinyl-6′-yl]-phenyl}-ethanone], the IC50 fell in the range of 10 to 100 µM.
On the same count and under the same terms, for `COc1ccccc1N1CCN(c2cncc(-c3ccc(C(F)(F)F)cc3)n2)CC1` [compound 188, 4-(2-Methoxy-phenyl)-6′-(4-trifluoromethyl-phenyl)-3,4,5,6-tetrahydro-2H-[1,2′]bipyrazinyl] the value was 10 to 100 µM.
As for “6′-Benzo[b]thiophen-2-yl-4-pyridin-4-yl-3,4,5,6-tetrahydro-2H-[1,2′]bipyrazinyl [compound 69]”, the IC50 was under 1 µM.
